Experimental data reported in PubChem BioAssay (NCI).
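How tested: cells in 96-well plates exposed to compound for 48 hours at five concentrations. The concentration for full growth arrest is given as TGI.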

Columns and labels:
Experiment in all cases: NCI-60 cell line screen, 48 h
ACHN renal = test system: ACHN renal
NCI/ADR-RES ovarian = test system: NCI/ADR-RES ovarian
HS 578T breast = test system: HS 578T breast
DU-145 prostate = test system: DU-145 prostate
MDA-N = test system: MDA-N
MOLT-4 leukemia = test system: MOLT-4 leukemia
OVCAR-4 ovarian = test system: OVCAR-4 ovarian
HCT-15 colon = test system: HCT-15 colon
OVCAR-3 ovarian = test system: OVCAR-3 ovarian
SK-MEL-28 melanoma = test system: SK-MEL-28 melanoma
U251 CNS = test system: U251 CNS
SF-295 CNS = test system: SF-295 CNS
SF-268 CNS = test system: SF-268 CNS
SK-OV-3 ovarian = test system: SK-OV-3 ovarian
SW-620 colon = test system: SW-620 colon
CCRF-CEM leukemia = test system: CCRF-CEM leukemia
NCI-H522 lung = test system: NCI-H522 lung
T-47D breast = test system: T-47D breast
HOP-62 NSCLC = test system: HOP-62 NSCLC
UO-31 renal = test system: UO-31 renal

Row | Structure (SMILES) | TGI (ACHN renal) | TGI (NCI/ADR-RES ovarian) | TGI (HS 578T breast) | TGI (DU-145 prostate) | TGI (MDA-N) | TGI (MOLT-4 leukemia) | TGI (OVCAR-4 ovarian) | TGI (HCT-15 colon) | TGI (OVCAR-3 ovarian) | TGI (SK-MEL-28 melanoma) | TGI (U251 CNS) | TGI (SF-295 CNS) | TGI (SF-268 CNS) | TGI (SK-OV-3 ovarian) | TGI (SW-620 colon) | TGI (CCRF-CEM leukemia) | TGI (NCI-H522 lung) | TGI (T-47D breast) | TGI (HOP-62 NSCLC) | TGI (UO-31 renal)
1 | O=C1/C(=c2\s/c(=C\c3ccccc3)c(=O)n2-c2ccccc2)SC(=S)N1c1ccccc1 | 76.2 µM | 96.8 µM | > 100 µM | > 100 µM | > 100 µM | > 100 µM | > 100 µM | > 100 µM | 88.8 µM | > 100 µM | 81.1 µM | > 100 µM | > 100 µM | 52.1 µM | > 100 µM | > 100 µM |  |  |  | 
2 | COc1cc(C=O)cc(/C=N/n2c3ccccc3c3ccccc32)c1O | > 100 µM |  | > 100 µM | > 100 µM |  | 76.8 µM | > 100 µM | > 100 µM | > 100 µM | > 100 µM | > 100 µM | 18.6 µM | > 100 µM | > 100 µM | > 100 µM | > 100 µM | 73.2 µM | > 100 µM | > 100 µM | > 100 µM
3 | NC(=O)Nc1ccc(S(=O)(=O)Nc2ccc(S(N)(=O)=O)cc2)cc1 | > 100 µM | > 100 µM |  | > 100 µM | > 100 µM |  | > 100 µM | > 100 µM | > 100 µM | > 100 µM | > 100 µM | > 100 µM | 2.59 µM |  | > 100 µM | > 100 µM | > 100 µM | > 100 µM | > 100 µM | > 100 µM
4 | CN1CN(c2ccccc2)C2(CCN(Cc3csc4ccccc34)CC2)C1=O | 92.4 µM | 61.1 µM |  | > 100 µM | 32.2 µM | 29.6 µM |  | > 100 µM | 27.4 µM | 68.7 µM |  | 26.6 µM | > 100 µM | > 100 µM | > 100 µM | > 100 µM | 35.7 µM | 71 µM | 87.5 µM | 12.3 µM
5 | CC(=O)C1(Cc2cccc3ccccc23)S(=O)(=O)OCCOS1(=O)=O | 38 µM | 61.2 µM |  | 42.2 µM | 24.6 µM | > 100 µM | 75.9 µM | 41.6 µM | 36.4 µM | 41.2 µM | 31.1 µM | 20.5 µM | 50.2 µM | 8.9 µM | 39.2 µM | > 100 µM | 47.7 µM | 43.3 µM | 44.8 µM | 29.3 µM
6 | C/C(=C(/C)c1ccc(O)cc1)c1ccc(O)cc1 | > 100 µM | > 100 µM | 75.6 µM | > 100 µM | > 100 µM | > 100 µM |  | > 100 µM | > 100 µM |  | > 100 µM |  | > 100 µM | > 100 µM | > 100 µM | > 100 µM | > 100 µM |  | > 100 µM | > 100 µM
7 | N#CC(C#N)=C1c2ccccc2C(=NN)c2ccccc21 | > 63.9 µM | > 100 µM | > 91.5 µM | > 100 µM | > 100 µM | > 100 µM |  | > 100 µM | > 100 µM | > 100 µM | > 100 µM | > 100 µM | > 100 µM | > 100 µM | > 100 µM | > 100 µM | > 100 µM |  | > 100 µM | > 100 µM
8 | O=c1ccn2n1Cc1ccccc1C2 | > 100 µM | > 100 µM | > 100 µM | > 100 µM |  | > 100 µM | > 100 µM | > 100 µM | > 100 µM | > 100 µM | > 100 µM | > 100 µM | > 100 µM | > 100 µM | > 100 µM | > 100 µM | > 100 µM | > 100 µM | > 100 µM | > 100 µM
9 | CN1Cc2cc3cc4c(cc3nc2N(C)C1)OCCO4 | > 100 µM | > 100 µM |  |  | > 100 µM | > 100 µM | > 100 µM | > 100 µM |  |  | > 100 µM | > 100 µM | > 100 µM | > 100 µM | > 100 µM | > 100 µM | > 100 µM |  | > 100 µM | 
10 | O=C(O)c1cc(CC2Cc3cc4c(cc3C2=O)CCC4)cc2c1CCC2 (configuration not stated) | > 100 µM | > 100 µM | > 100 µM | > 100 µM |  | > 100 µM | > 100 µM | > 100 µM | > 100 µM | > 100 µM | > 100 µM | > 100 µM | > 100 µM | > 100 µM | > 100 µM | > 100 µM | > 100 µM | > 100 µM | > 100 µM | > 100 µM
11 | Cc1cc(-c2cccc3ccccc23)c(C#N)c(=S)n1C1OC(CO)C(O)C(O)C1O (configuration not stated) | > 100 µM | > 100 µM | > 100 µM |  | > 100 µM | > 100 µM | > 100 µM | > 100 µM | > 100 µM |  |  | > 100 µM |  | > 100 µM | > 100 µM | > 100 µM |  | > 100 µM | > 100 µM | 
12 | O=c1cc(-c2ccccc2)c2ccccc2[nH]1 | > 100 µM |  |  |  |  | > 100 µM | > 100 µM | > 100 µM |  | > 100 µM | > 100 µM | > 100 µM | > 100 µM | 84.8 µM | > 100 µM | > 100 µM | > 100 µM |  | > 100 µM | 55.9 µM
13 | COC(=O)/C=C\COCC1C2CCC(=O)C21 (configuration not stated) | > 25 µM | > 25 µM |  | > 25 µM | > 25 µM | 20.7 µM | > 25 µM | > 25 µM | > 25 µM | > 25 µM | > 25 µM | > 25 µM | > 25 µM | > 25 µM | > 25 µM | 16.2 µM | 7.83 µM |  | > 25 µM | > 25 µM
14 | [N-]=[N+]=NC(CCl)c1cn([C@H]2C[C@H](O)[C@@H](CO)O2)c(=O)[nH]c1=O (some centres not stated) | > 100 µM |  |  |  |  | > 100 µM |  | > 100 µM | > 100 µM | > 100 µM | > 100 µM | > 100 µM |  | > 100 µM | > 100 µM | > 100 µM | > 100 µM |  | > 100 µM | > 100 µM
